Measurements published in US11266626B2, “Reduction of ER-MAM-localized APP-C99 and methods of treating alzheimer's disease” (THE TRUSTEES OF COLUMBIA UNIVERSITY IN THE CITY OF NEW YORK, priority 2015, dated 2022).
Entries after “also recorded” stand apart in the source; their conditions may differ.

Key:
SH-SY5Y cells [1] = experiment: Seahorse analysis of mitochondrial respiration (OCR); format: cell-based, human; conditions: 10 μM DAPT vs untreated
Procedure: (§1) Respirometry of cultured cells was performed using the XF24e Extracellular Flux Analyzer (Seahorse Bioscience). Oxygen consumption was measured in basal conditions (Seahorse media with 25 mM glucose and 2 mM pyruvate) and after the sequential addition of 1 μM oligomycin (Complex V inhibitor), 0.75 μM FCCP (uncoupler) and 1 μM rotenone/1 μM antimycin A (Complex I and Complex III inhibitors respectively).
(§2) Respirometry of cultured cells was performed using the XF24e Extracellular Flux Analyzer (Seahorse Bioscience). Oxygen consumption was measured in basal conditions (Seahorse media with 25 mM glucose and 2 mM pyruvate) and after the sequential addition of 1 μM oligomycin (complex V inhibitor), 0.75 μM FCCP (uncoupler), and 1 μM rotenone/1 μM antimycin A (complex I and complex III inhibitors, respectively). All results were averages of five or more biological replicates. Every biological replicate consisted of three technical replicates. For every technical replicate, we plated equal number of cells (25,000 cell/well when MEFs were used, and 50,000 cells/well when human primary fibroblasts were analyzed). The number of cells was also counted after every respirometry assay to correct for cell death. All oxygen consumption (OCR) data were normalized by the number of viable cells or by protein quantity when isolated mitochondria were used.

SH-SY5Y cells [2] = experiment: Mitochondrial content and biogenesis (VDAC western blot; qRT-PCR); format: cell-based, human
APP C-terminal fragments = experiment: Western blot of APP C-terminal fragments in total homogenates; format: cell-based, mouse; conditions: PS-DKO MEFs total homogenates; BI
Procedure: Purification of ER, MAM, and mitochondria was performed and analyzed as described (4).
Purification of ER, MAM, and mitochondria was performed and analyzed as described Area-Gomez et al., 2009, the contents of which is hereby incorporated by reference in its entirety.
Purification of ER, MAM, and mitochondria was performed and analyzed as described (Area-Gomez et al, 2009). For C99 detection, samples were run in 4-12% Bis-Tris gels (Criterion XT Precast Midi Gels, BioRad) in XT MES buffer.

PS-DKO cells [3] = experiment: Lipidomic analyses of membranes; format: cell-based, mouse; conditions: for ceramide levels / sphingomyelin levels: PS-DKO cells, BI 100 nM or myriocin 5 μM
Procedure: (§3) Lipid extracts were prepared via chloroform-methanol extraction, spiked with appropriate internal standards, and analyzed using a 6490 Triple Quadrupole LC/MS system (Agilent Technologies, Santa Clara, Calif.) as described previously (6, 7). Glycerophospholipids and sphingolipids were separated with normal-phase HPLC using an Agilent Zorbax Rx-Sil column (inner diameter 2.1×100 mm) under the following conditions: mobile phase A (chloroform:methanol:1 M ammonium hydroxide, 89.9:10:0.1, v/v) and mobile phase B (chloroform:methanol:water:ammonium hydroxide, 55:39.9:5:0.1, v/v); 95% A for 2 min, linear gradient to 30% A over 18 min and held for 3 min, and linear gradient to 95% A over 2 min and held for 6 min. Quantification of lipid species was accomplished using multiple reaction monitoring (MRM) transitions that were developed in earlier studies (6) in conjunction with referencing of appropriate internal standards: ceramide d18:1/17:0 and sphingomyelin d18:1/12:0 (Avanti Polar Lipids, Alabaster, Ala.).
as §3, with “Lipids were extracted from equal amounts of material (30 μg protein/sample). Lipid extracts” for “Lipid extracts”, “described previously (Chan et al., 2012). Glycerophospholipids and” for “described previously (6, 7). Glycerophospholipids and”, “hydroxide, 89.9:10:0.1, v/v/v) and mobile” for “hydroxide, 89.9:10:0.1, v/v) and mobile”, “hydroxide, 55:39.9:5:0.1, v/v/v); 95% A” for “hydroxide, 55:39.9:5:0.1, v/v); 95% A”, “earlier studies (Chan et al., 2012) in conjunction” for “earlier studies (6) in conjunction”, “Alabaster, Ala.). Values are represented as mole fraction with respect to total lipid (% molarity)” for “Alabaster, Ala.).”
Lipids were extracted from equal amounts of material (30 μg protein/sample). Lipid extracts were prepared via chloroform-methanol extraction, spiked with appropriate internal standards, and analyzed using a 6490 Triple Quadrupole LC/MS system (Agilent Technologies, Santa Clara, Calif.) as described previously (Chan et al, 2012). Glycerophospholipids and sphingolipids were separated with normal-phase HPLC using an Agilent Zorbax Rx-Sil column (inner diameter 2.1×100 mm) under the following conditions: mobile phase A (chloroform:methanol:1 M ammonium hydroxide, 89.9:10:0.1, v/v/v) and mobile phase B (chloroform:methanol:water:ammonium hydroxide, 55:39.9:5:0.1, v/v/v/v); 95% A for 2 min, linear gradient to 30% A over 18 min and held for 3 min, and linear gradient to 95% A over 2 min and held for 6 min. Quantification of lipid species was accomplished using multiple reaction monitoring (MRM) transitions that were developed in earlier studies (Chan et al, 2012) in conjunction with referencing of appropriate internal standards: ceramide d18:1/17:0 and sphingomyelin d18:1/12:0 (Avanti Polar Lipids, Alabaster, Ala., USA). Values are represented as mole fraction with respect to total lipid (% molarity). For this, lipid mass (in moles) of any specific lipid is normalized by the total mass (in moles) of all the lipids measured (Chan et al, 2012). In addition, all of our results were further normalized by protein content.

FAD fibroblasts = experiment: Seahorse analysis of mitochondrial respiration (OCR); format: cell-based, human; conditions: FAD patient fibroblasts; BI
Procedure: as §1, §2

PS-DKO cells [4] = experiment: Conversion of fluorescent sphingomyelin to ceramide in mitochondrial membranes (TLC); format: cell-based, mouse; conditions: PS-DKO (presenilin-mutant) cells; BI
Procedure: SMase activity was therefore measured in MEFs lacking APP and APLP2 (APP-DKO) (28). […] To test this, SMases was measured in PSDKO cells treated with α- and β-secretase inhibitors, to abrogate the production of C83 and C99, respectively. As controls, the γ-secretase products Aβ and AICD were also added back (FIG. 9G). […] For corroboration in vivo, PS-DKO and control cells were incubated with a fluorescent analog of sphingomyelin and analyzed its conversion to ceramide.
To explore this further, PS-DKO and control cells were incubated with a fluorescent sphingomyelin (FL-SM) and its localization and conversion to ceramide in mitochondrial membranes was analyzed by thin-layer chromatography (TLC).
To explore this further, we incubated PS-DKO and control cells with fluorescent sphingomyelin and analyzed its localization and conversion to ceramide in mitochondrial membranes by thin-layer chromatography (TLC).

Compound	mitochondrial respiration (OCR) (SH-SY5Y cells [1])	mitochondrial content or biogenesis (SH-SY5Y cells [2])	accumulation of APP C-terminal fragments (APP C-terminal fragments)	ceramide levels (PS-DKO cells [3])	sphingomyelin levels (PS-DKO cells [3])	ceramide levels (PS-DKO cells [3]; listed as BACE1 inhibitor)	sphingomyelin levels (PS-DKO cells [3]; listed as BACE1 inhibitor)	PtdSer content of membranes (PS-DKO cells [3]; PS-DKO membranes, BI)	mitochondrial respiration (OCR) (FAD fibroblasts)	increase in ceramide derived from fluorescent sphingomyelin at mitochondria (PS-DKO cells [4])
C[C@H](NC(=O)Cc1cc(F)cc(F)c1)C(=O)N[C@H](C(=O)OC(C)(C)C)c1ccccc1 [DAPT]	significant decrease in respiration; also recorded: significant reduction in respiration	without altering mitochondrial content or biogenesis								
C[C@@H](NC(=O)c1cc(C(=O)N[C@@H](Cc2ccccc2)[C@H](O)CNC2CC2)cc(N(C)S(C)(=O)=O)c1)c1ccccc1 [BI, β-secretase inhibitor IV]			eliminates the accumulation of APP C-terminal fragments	reversing the alterations in both sphingomyelin (FIG. 46E) and ceramide	reversing the alterations in both sphingomyelin	completely reversed the changes in SM and Cer levels	completely reversed the changes in SM and Cer levels	reduced the PtdSer content of PS-DKO membranes to control levels	reversed the defect in mitochondrial respiration; also recorded: rescued the respiration defects	this increase disappeared; also recorded: the elevated deposition of ceramide at mitochondria disappeared
